# Results taken from US10478485B2, “Methods and compositions to prevent or treat bacterial infections” (priority 2015, dated 2019).
# Key:
# A. baumannii strain Ci79 = assay: Bacterial adherence to mouse intestinal sections; assay type: cell-based, Acinetobacter baumannii
# Procedure: Intestinal sections were cut down one side to expose the inner lumen of the intestine and individually placed in suspensions of A. baumannii strain Ci79 (10^7 CFU/mL). The sections were incubated in this mixture for 30 minutes, washed twice in 250 volumes of sterile PBS and soaked in 500 volumes of PBS (volume of section ˜50-100 μL) for five minutes. The remaining bound bacteria were enumerated through homogenization of each section into single cell suspensions in 10 mL sterile PBS followed by dilution plating.
# [1] = tested on: multi-drug resistant (MDR) Acinetobacter baumannii clinical isolates; assay: Minimum inhibitory concentration (MIC) determination; assay type: cell-based
# Procedure: PX-12 concentrations used in these experiments approximated the concentration reported “well tolerated” by mice (˜500 μg/mouse; 500 μg/mL for this experiment). […] Furthermore, this concentration was also bactericidal leading us to believe it may potentially be useful as a new antimicrobial compound for treating MDR Acinetobacter baumannii. (Bacterial concentrations used in presented studies ˜100× higher than recommended by CLSI standards)
# Acinetobacter baumannii = assay: SIgA breakdown / secretory component liberation by Acinetobacter baumannii (Western blot); assay type: cell-based; details: for inhibition of SIgA reduction and SC liberation: 2 hours after incubation
# Procedure: Acinetobacter baumannii was incubated with 50 μg/mL SIgA to examine breakdown of the immunoglobulin. Breakdown of SIgA by A. baumannii was observed by liberation of secretory component from dimeric IgA. Goat anti-human secretory component (free and bound) antibody was used to monitor this occurrence though Western blot. A mixture of A. baumannii strain Ci79 was prepared in three concentrations −10^7, 10^6, and 10^5 CFU/mL—to determine whether SIgA breakdown was dose dependent with respect to bacterial concentration FIG. 1A. […] Next, two competitive inhibitors of reductase enzymes targeting the thioredoxin fold (-C-X-X-C-) motif typically found in thiol-reductase enzymes (thioredoxin, glutathione, thioredoxin reductase, etc) were identified. The first, dithionitrobenzoic acid (Ellman's reagent) is often used as a colorimetric substrate to monitor thioredoxin activity as it produces a bright yellow color upon cleavage of the disulfide bond within the molecule. The second is PX-12. […] (Error bars represent ±SEM in all graphs; statistical differences determined by ANOVA with Dunnett correction; * significance p<0.01; ** p<0.001).
# [2] = cited from earlier work
Compound,"bacterial adherence to intestinal sections (A. baumannii strain Ci79; 18 μg/mL, sections from WT C57BL/6 mice)","reduction of bacterial attachment (A. baumannii strain Ci79; WT intestinal sections as 100% control, Ci79 10^7 CFU/mL, 30 minutes)",bacterial pellet size ([1]; 500 μg/mL),MIC ([1]; Acinetobacter baumannii),bactericidal effect ([1]; at 31.25 μg/mL),"bactericidal activity (low MIC combined with low MBC) ([1]; repeat MIC to CLSI standards, ~5×10^5 CFU/mL, 64 to 0.5 μg/mL)",time after which inhibition is overcome by the bacteria (Acinetobacter baumannii),inhibition of SIgA reduction and SC liberation (Acinetobacter baumannii; 15 μg/mL),"SIgA breakdown by Acinetobacter baumannii (Acinetobacter baumannii; 18 μg/mL, up to 2 hours following treatment)",concentration reported well tolerated by mice [2],SIgA breakdown by Acinetobacter baumannii after addition of inhibitor (Acinetobacter baumannii),inhibition of SIgA reduction and SC liberation (Acinetobacter baumannii; 1 mM),inhibition of SIgA reduction at 24 hours (Acinetobacter baumannii; 24 hours)
"CCC(C)SSc1ncc[nH]1 (stereo not shown) [PX-12, 1-methylpropyl 2-imidazolyl disulfide]",significantly inhibits,~40%,visible decrease in bacterial pellet size,31.2 µg/mL,bactericidal,bactericidal activity,about 12 hours,completely ablated,significantly reduced,~500 μg/mouse,,,
"O=C(O)c1cc(SSc2ccc([N+](=O)[O-])c(C(=O)O)c2)ccc1[N+](=O)[O-] [Ellman's reagent, dithionitrobenzoic acid]",,,,,,,,,,,significantly reduced,completely ablated,inhibition was still evident
